Laboratory results taken from ChEMBL document CHEMBL1201862, “PubChem BioAssay data set” (2004).
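All cell lines were grown in 96-well plates and treated with compound for 48 hours. Abbreviation: GI50, concentration required for 50% inhibition of growth.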 Active and inactive are the calls of the source. Rule as the data show it: active = GI50 up to about 1.1 µM and inactive = higher.

Columns and labels:
Assay in all cases: growth of human tumour cells (NCI), 48 h
[1] = test system: K562
[2] = test system: TK-10
[3] = test system: SK-MEL-28
[4] = test system: OVCAR-8
[5] = test system: CCRF-CEM
[6] = test system: M19-MEL
[7] = test system: Malme-3M
[8] = test system: HCT-15
[9] = test system: UO-31
[10] = test system: SK-OV-3
[11] = test system: HT-29
[12] = test system: HL-60
[13] = test system: DMS-114
[14] = test system: MOLT-4
[15] = test system: UACC-257
[16] = test system: UACC-62
[17] = test system: LOX IMVI
[18] = test system: SK-MEL-5
[19] = test system: MDA-MB-231
[20] = test system: BT-549

SMILES	GI50 [1]	GI50 [2]	GI50 [3]	GI50 [4]	GI50 [5]	GI50 [6]	GI50 [7]	GI50 [8]	GI50 [9]	GI50 [10]	GI50 [11]	GI50 [12]	GI50 [13]	GI50 [14]	GI50 [15]	GI50 [16]	GI50 [17]	GI50 [18]	GI50 [19]	GI50 [20]
CNC(=O)OCc1nc(SSc2nc(COC(=O)NC)c(COC(=O)NC)n2C)n(C)c1COC(=O)NC	> 100 µM (inactive)	> 100 µM (inactive)	> 100 µM (inactive)	> 100 µM (inactive)	> 100 µM (inactive)	> 100 µM (inactive)	> 100 µM (inactive)	> 100 µM	> 100 µM (inactive)	> 100 µM (inactive)	> 100 µM (inactive)	> 100 µM (inactive)	> 100 µM (inactive)	> 100 µM (inactive)	> 100 µM (inactive)	> 100 µM (inactive)	> 100 µM (inactive)	> 100 µM (inactive)	–	–
CCOC(=O)C1C(=S)NC(=O)C1C#N (stereo unspecified)	> 100 µM (inactive)	> 100 µM (inactive)	> 100 µM (inactive)	> 100 µM (inactive)	> 100 µM (inactive)	> 100 µM (inactive)	> 100 µM (inactive)	> 100 µM	> 100 µM (inactive)	> 100 µM (inactive)	> 100 µM (inactive)	> 100 µM (inactive)	> 100 µM (inactive)	> 100 µM (inactive)	> 100 µM (inactive)	> 100 µM (inactive)	> 100 µM (inactive)	> 100 µM (inactive)	–	–
C/C(=N\NC(N)=S)c1ccc2c(c1)OCO2	> 100 µM (inactive)	> 100 µM (inactive)	> 100 µM (inactive)	> 100 µM (inactive)	56.8 µM (inactive)	> 100 µM (inactive)	> 100 µM (inactive)	> 100 µM	76.2 µM (inactive)	> 100 µM (inactive)	> 100 µM (inactive)	21.2 µM (inactive)	94.8 µM (inactive)	> 100 µM (inactive)	99.1 µM (inactive)	> 100 µM (inactive)	> 100 µM (inactive)	> 100 µM (inactive)	–	–
O=C(Nc1c(O)[nH]c(=S)[nH]c1=O)c1ccccn1	> 100 µM (inactive)	> 100 µM (inactive)	> 100 µM (inactive)	> 100 µM (inactive)	> 100 µM (inactive)	> 100 µM (inactive)	> 100 µM (inactive)	> 100 µM	> 100 µM (inactive)	> 100 µM (inactive)	> 100 µM (inactive)	> 100 µM (inactive)	> 100 µM (inactive)	> 100 µM (inactive)	> 100 µM (inactive)	> 100 µM (inactive)	> 100 µM (inactive)	> 100 µM (inactive)	–	–
O=C1CCC2(c3ccc(Cl)cc3)Nc3ncccc3N12 (stereo unspecified)	> 100 µM (inactive)	> 100 µM (inactive)	> 100 µM (inactive)	> 100 µM (inactive)	> 100 µM (inactive)	> 100 µM (inactive)	> 100 µM (inactive)	> 100 µM	> 100 µM (inactive)	> 100 µM (inactive)	> 100 µM (inactive)	> 100 µM (inactive)	> 100 µM (inactive)	> 100 µM (inactive)	> 100 µM (inactive)	> 100 µM (inactive)	> 100 µM (inactive)	> 100 µM (inactive)	–	–
CC(C)(C)OC1=C(OC(C)(C)C)C(O)(c2ccccc2)C1=O (stereo unspecified)	> 100 µM (inactive)	> 100 µM (inactive)	> 100 µM (inactive)	> 100 µM (inactive)	> 100 µM (inactive)	> 100 µM (inactive)	> 100 µM (inactive)	> 100 µM	> 100 µM (inactive)	> 100 µM (inactive)	> 100 µM (inactive)	> 100 µM (inactive)	> 100 µM (inactive)	> 100 µM (inactive)	–	> 100 µM (inactive)	> 100 µM (inactive)	> 100 µM (inactive)	–	–
C[N+](C)(C)CCC(=O)N1C/C(=C\c2ccccc2)C(=O)/C(=C/c2ccccc2)C1	1.21 µM (inactive)	14.4 µM (inactive)	8.05 µM (inactive)	3.52 µM (inactive)	1.64 µM (inactive)	4.81 µM (inactive)	15.4 µM (inactive)	2.47 µM	18.9 µM (inactive)	23.7 µM (inactive)	2.79 µM (inactive)	2.27 µM (inactive)	5.98 µM (inactive)	2.45 µM (inactive)	12.2 µM (inactive)	3.58 µM (inactive)	1.7 µM (inactive)	9.95 µM (inactive)	3.22 µM (inactive)	2.33 µM (inactive)
CC1=CC=NN2C(=O)[C@H](C)C2C1 (stereo partly specified)	> 100 µM (inactive)	> 100 µM (inactive)	> 100 µM (inactive)	> 100 µM (inactive)	> 100 µM (inactive)	> 100 µM (inactive)	> 100 µM (inactive)	> 100 µM	> 100 µM (inactive)	> 100 µM (inactive)	> 100 µM (inactive)	> 100 µM (inactive)	> 100 µM (inactive)	> 100 µM (inactive)	> 100 µM (inactive)	> 100 µM (inactive)	> 100 µM (inactive)	> 100 µM (inactive)	–	–
N#COc1ccc(Oc2ccccc2)cc1	48.4 µM (inactive)	> 100 µM (inactive)	> 100 µM (inactive)	49.5 µM (inactive)	24.5 µM (inactive)	> 100 µM (inactive)	> 100 µM (inactive)	57.7 µM	50.9 µM (inactive)	> 100 µM (inactive)	72.4 µM (inactive)	26.3 µM (inactive)	31.1 µM (inactive)	42.9 µM (inactive)	> 100 µM (inactive)	31.5 µM (inactive)	23.1 µM (inactive)	46.6 µM (inactive)	–	–
CC1CCC2CC(=O)OC([C@@H]3C(=O)O[C@@H](C4=CCCC4)C4C(C)CCC43)C12 (stereo partly specified)	43.7 µM (inactive)	54.5 µM (inactive)	> 100 µM (inactive)	68.5 µM (inactive)	34.8 µM (inactive)	> 100 µM (inactive)	> 100 µM (inactive)	48.2 µM	> 100 µM (inactive)	> 100 µM (inactive)	61 µM (inactive)	23.1 µM (inactive)	27.7 µM (inactive)	36.2 µM (inactive)	> 100 µM (inactive)	> 100 µM (inactive)	> 100 µM (inactive)	97.7 µM (inactive)	–	–
